In PubChem BioAssay (NCI):
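At the GI50, growth is halved. Definition used: TGI = concentration required for complete inhibition of growth.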

Tests used:
Experiment in all cases: NCI-60 cell line screen, 384-well format
SF-539 CNS = tested on: SF-539 CNS
MDA-MB-435 melanoma = tested on: MDA-MB-435 melanoma
NCI-H226 lung = tested on: NCI-H226 lung
HT29 colon = tested on: HT29 colon
HS 578T breast = tested on: HS 578T breast
SR leukemia = tested on: SR leukemia
BT-549 breast = tested on: BT-549 breast
HL-60(TB) leukemia = tested on: HL-60(TB) leukemia
RPMI-8226 leukemia = tested on: RPMI-8226 leukemia
NCI-H322M lung = tested on: NCI-H322M lung
CAKI-1 renal = tested on: CAKI-1 renal
HOP-92 NSCLC = tested on: HOP-92 NSCLC
KM12 colon = tested on: KM12 colon
SN12C renal = tested on: SN12C renal
LOX IMVI melanoma = tested on: LOX IMVI melanoma
MDA-MB-231 breast = tested on: MDA-MB-231 breast
IGROV1 ovarian = tested on: IGROV1 ovarian
OVCAR-3 ovarian = tested on: OVCAR-3 ovarian
K-562 leukemia = tested on: K-562 leukemia
HCT-15 colon = tested on: HCT-15 colon
UO-31 renal = tested on: UO-31 renal
A549 NSCLC = tested on: A549 NSCLC
OVCAR-4 ovarian = tested on: OVCAR-4 ovarian
HCT-116 colon = tested on: HCT-116 colon
UACC-62 melanoma = tested on: UACC-62 melanoma
HOP-62 NSCLC = tested on: HOP-62 NSCLC
SK-OV-3 ovarian = tested on: SK-OV-3 ovarian
HCC-2998 colon = tested on: HCC-2998 colon
SNB-19 CNS = tested on: SNB-19 CNS
RXF 393 renal = tested on: RXF 393 renal
MDA-MB-468 breast = tested on: MDA-MB-468 breast
PC-3 prostate = tested on: PC-3 prostate
786-0 renal = tested on: 786-0 renal
SK-MEL-5 melanoma = tested on: SK-MEL-5 melanoma
UACC-257 melanoma = tested on: UACC-257 melanoma
COLO 205 colon = tested on: COLO 205 colon
NCI-H522 lung = tested on: NCI-H522 lung
M14 melanoma = tested on: M14 melanoma
MCF7 breast = tested on: MCF7 breast
NCI/ADR-RES ovarian = tested on: NCI/ADR-RES ovarian
SK-MEL-28 melanoma = tested on: SK-MEL-28 melanoma
MALME-3M melanoma = tested on: MALME-3M melanoma
EKVX NSCLC = tested on: EKVX NSCLC
OVCAR-8 ovarian = tested on: OVCAR-8 ovarian
SF-295 CNS = tested on: SF-295 CNS
DU-145 prostate = tested on: DU-145 prostate
NCI-H23 lung = tested on: NCI-H23 lung
A498 renal = tested on: A498 renal
TK-10 renal = tested on: TK-10 renal
T-47D breast = tested on: T-47D breast
NCI-H460 NSCLC = tested on: NCI-H460 NSCLC
ACHN renal = tested on: ACHN renal
U251 glioblastoma = tested on: U251 glioblastoma
MOLT-4 leukemia = tested on: MOLT-4 leukemia
SW-620 colon = tested on: SW-620 colon
SNB-75 CNS = tested on: SNB-75 CNS
SF-268 CNS = tested on: SF-268 CNS
CCRF-CEM leukemia = tested on: CCRF-CEM leukemia

## CCCN(CCC)C(=O)C1=Cc2ccc(-c3ccc(C(=O)N4CCCC4)cc3)cc2N=C(N)C1
SF-539 CNS
  GI50: 3.99 µM
  TGI: 16.6 µM
MDA-MB-435 melanoma
  GI50: 2.2 µM
  TGI: 5.73 µM
NCI-H226 lung
  GI50: 10.7 µM
  TGI: 23.8 µM
HT29 colon
  GI50: 3.41 µM
  TGI: 11.9 µM
HS 578T breast
  GI50: 3.34 µM
  TGI: 12 µM
SR leukemia
  GI50: 1.31 µM
  TGI: 3.21 µM
BT-549 breast
  GI50: 4.19 µM
  TGI: 14.8 µM
HL-60(TB) leukemia
  GI50: 1.52 µM
  TGI: 2.86 µM
RPMI-8226 leukemia
  GI50: 1.78 µM
  TGI: 5.78 µM
NCI-H322M lung
  GI50: 7.93 µM
  TGI: 20.6 µM
CAKI-1 renal
  GI50: 5.86 µM
  TGI: 19.2 µM
HOP-92 NSCLC
  GI50: 4 µM
  TGI: 15.7 µM
KM12 colon
  GI50: 2.81 µM
  TGI: 11.2 µM
SN12C renal
  GI50: 13.4 µM
  TGI: 29.4 µM
LOX IMVI melanoma
  GI50: 5.71 µM
  TGI: 18.2 µM
MDA-MB-231 breast
  GI50: 5.09 µM
  TGI: 17.5 µM
IGROV1 ovarian
  GI50: 10 µM
  TGI: 23.4 µM
OVCAR-3 ovarian
  GI50: 2.78 µM
  TGI: 6.51 µM
K-562 leukemia
  GI50: 2.52 µM
  TGI: 10.3 µM
HCT-15 colon
  GI50: 3.48 µM
  TGI: 14.1 µM
UO-31 renal
  GI50: 8.31 µM
  TGI: 21.1 µM
A549 NSCLC
  GI50: 6.2 µM
  TGI: 19.9 µM
OVCAR-4 ovarian
  GI50: 12.4 µM
  TGI: 26 µM
HCT-116 colon
  GI50: 3.47 µM
  TGI: 13.1 µM
UACC-62 melanoma
  GI50: 4.59 µM
  TGI: 16.4 µM
HOP-62 NSCLC
  GI50: 3.07 µM
  TGI: 11.7 µM
SK-OV-3 ovarian
  GI50: 5.22 µM
  TGI: 17.2 µM
HCC-2998 colon
  GI50: 5.42 µM
  TGI: 18.3 µM
SNB-19 CNS
  GI50: 4.95 µM
  TGI: 17.4 µM
RXF 393 renal
  GI50: 2.52 µM
  TGI: 10.4 µM
MDA-MB-468 breast
  GI50: 1.63 µM
  TGI: 5.02 µM
PC-3 prostate
  GI50: 3.66 µM
  TGI: 13.9 µM
786-0 renal
  GI50: 4.81 µM
  TGI: 16.6 µM
SK-MEL-5 melanoma
  GI50: 1.6 µM
  TGI: 3.65 µM
UACC-257 melanoma
  GI50: 5.77 µM
  TGI: 18.7 µM
COLO 205 colon
  GI50: 4.89 µM
  TGI: 16.9 µM
NCI-H522 lung
  GI50: 2.69 µM
  TGI: 10.3 µM
M14 melanoma
  GI50: 3.76 µM
  TGI: 13 µM
MCF7 breast
  GI50: 3.11 µM
  TGI: 12.1 µM
NCI/ADR-RES ovarian
  GI50: 12.8 µM
  TGI: 27.9 µM
SK-MEL-28 melanoma
  GI50: 11 µM
  TGI: 23 µM
MALME-3M melanoma
  GI50: 3.81 µM
  TGI: 14.6 µM
EKVX NSCLC
  GI50: 3.93 µM
  TGI: 16.5 µM
OVCAR-8 ovarian
  GI50: 8.34 µM
  TGI: 21.4 µM
SF-295 CNS
  GI50: 3.42 µM
  TGI: 12.9 µM
DU-145 prostate
  GI50: 9.15 µM
  TGI: 22.2 µM
NCI-H23 lung
  GI50: 3.67 µM
  TGI: 14.7 µM
A498 renal
  GI50: 3.93 µM
  TGI: 15.3 µM
TK-10 renal
  GI50: 10.3 µM
  TGI: 23.3 µM
T-47D breast
  GI50: 3.02 µM
  TGI: 14.4 µM
NCI-H460 NSCLC
  GI50: 2.23 µM
  TGI: 5.31 µM
ACHN renal
  GI50: 10.8 µM
  TGI: 23.5 µM
U251 glioblastoma
  GI50: 5.15 µM
  TGI: 17.4 µM
MOLT-4 leukemia
  GI50: 2.51 µM
  TGI: 8.74 µM
SW-620 colon
  GI50: 4.06 µM
  TGI: 14.6 µM
SNB-75 CNS
  GI50: 3.48 µM
  TGI: 12.5 µM
SF-268 CNS
  GI50: 5.11 µM
  TGI: 17.6 µM
CCRF-CEM leukemia
  GI50: 3.53 µM
  TGI: 11.2 µM
